Assay results from patent US10864253B2, “Tissue protective peptides for preventing and treating diseases and disorders associated with tissue damage” (Araim Pharmaceuticals, Inc., priority 2016, dated 2020).

Tests used:
Akt = assay: Activation of Akt phosphorylation in HUVECs (Western blot); type: cell-based; conditions: HUVECs treated with peptide; Western blot anti-phospho-Akt / anti-Akt; FIG. 2
Experimental: In one assay for the activation of AKT by phosphorylation, HUVECs are purchased from Cell Applications (San Diego, Calif.) and grown in medium EGM-2 supplemented with 2% fetal calf serum (FCS) and penicillin/streptomycin (P/S) at 37° C. under air containing 5% CO2 in a humidified incubator. Preliminary experiments can be performed to determine the time course of the phosphorylation of Akt following stimulation by compounds that activated the tissue protective receptor. In some assays, the phosphorylation of Akt reaches a maximum 10 minutes following stimulation by compounds that activated the tissue protective receptor. After HUVECs are treated with tissue protective peptides or controls, cell lysates are prepared and Western blot is performed using anti-Akt and anti-phospho-Akt antibodies (Cell Signaling Technology, Danvers, Mass.). To perform the Western blot, cell lysates are subjected to SDS-PAGE, and transferred to nitrocellulose membranes (Amersham Biosciences, Piscataway, N.J.). The membrane is blocked for 1 h at room temperature with PBS containing 2% BSA and 0.05% Tween 20. The blots are incubated overnight at 4° C. or for 4 h at room temperature with a primary antibody against phospho-Akt, followed by incubation for 1 h with a secondary, horseradish peroxidase-conjugated antibody. Then the blots are reprobed with an antibody against Akt to confirm equal protein loading. […]

[1] = test system: STZ-induced diabetic mice; assay: STZ-induced diabetic neuropathy mouse model, paw thermal withdrawal latency; type: in vivo; conditions: STZ diabetic Swiss Webster mice, FIG. 3
Experimental: To test a peptide in a diabetic neuropathy mouse model, male Swiss Webster mice are given a single injection of STZ (180 mg/kg i.p.) to induce insulin-deficient diabetes. Hyperglycemia is confirmed 3 days thereafter, and to ensure induction of sufficient neuropathy, only mice with blood glucose levels exceeding 15 mmol/l are used. […] The time from initiation of heating to paw withdrawal is recorded in 4 separate trials 5 minutes apart, with the median value of the last 3 trials used for each mouse. […]
Briefly, male Swiss Webster mice were given a single injection of STZ (180 mg/kg i.p.) to induce insulin-deficient diabetes. […] The time from initiation of heating to paw withdrawal was recorded in 4 separate trials 5 minutes apart, with the median value of the last 3 trials used for each mouse.

With GDKA (Tissue protective peptide) the “activation of AKT (phosphorylation of Akt)” value (Akt) was “activated AKT”, the “thermal threshold (thermal withdrawal latency)” value ([1]; eye drops 50 microliters of 50 nanomolar solution to both eyes five days/week, after 12 weeks of therapy) was “normal thermal threshold” and the “thermal threshold compared with PBS-treated diabetic mice” value ([1]; eye drops 50 nanomolar, five days/week, 12 weeks) was “significantly lower”.
